The record followed here is PMC3827244, “An Ultrasensitive High Throughput Screen for DNA Methyltransferase 1-Targeted Molecular Probes” (PLoS ONE, 2013).

In assay [1] the target is T1, DNMT1 (amino acids 621–1616) (Homo sapiens, UniProt P26358).
T1 construct: RFTS-lacking DNMT1, amino acids 621–1616; made in house
Description: Validation of HTS hits, endonuclease-coupled DNA methylation assay. The assay is classed as biochemical. Also noted: Percent Activity: concentration or dose not given beside the values. To be noted: for vo (initial velocity): first 12 minutes of GlaI corrected triplicate reaction traces; for Percent Activity: from initial velocity compared to DMSO control; for Normalized RFU: normalized to DMSO control (100) and GlaI control without DNMT1 (0); for RFU: relative fluorescence after 25-minute incubation at 37 °C, 10.9 µM test compound, three replicates. The protocol:
DNMT activity was measured at 37°C using a fluorogenic DNA methylation assay. In short, a hemi-methylated hairpin oligonucleotide with a 5′ fluorophore and a 3′ quencher is methylated by addition of a DNMT and the methyl-donating co-factor, S-adenosyl methionine (SAM, HPLC-purified from Sigma). The fully methylated product is a substrate for the restriction endonuclease GlaI (Sibenzyme), which cleaves the oligonucleotide, releasing the fluorophore from the quencher and generating fluorescence. The oligonucleotide substrate (5′-FAM–[…]m[…]mCGmCATAGG-3′-Iowa Black, in which mC denotes 5-methyldeoxycytidylate residues), termed 8006, was synthesized by Integrated DNA Technologies, Coralville, IA. 96 well assays were performed in Co-Star black half-area plates and read in a Biotek Synergy Neo plate reader. 384 well assays were performed in Nunc flat-bottomed black plates and read in a PerkinElmer EnVision plate reader. FAM fluorescence was measured using excitation and emission wavelengths of 485 nm and 520 nm, respectively.
HTS against the Spectrum compound collection (Microsource, Gaylordsville, CT) was performed in eight 384 well plates. Using a Multiflo dispenser (Biotek), 75 µl of assay buffer (10.8 mM Tris-HCl pH 7.5, 1.08 mM MgCl2, 1.08 mM DTT, 108 mM potassium glutamate, 0.108 mg/ml BSA, 10.8 µM SAM, 21.6 nM oligonucleotide 8006, 5.4% glycerol) was dispensed into each well. 1 µl of each compound at 880 µM in DMSO (columns 3–22) or DMSO (columns 1, 2, 23 and 24) was added to assay plates using a Microlab Star liquid handling robot (Hamilton) and the plate was incubated at 37°C for 10 minutes. Following this warming step, 5 µl enzyme solution (either a DNMT1-containing solution of 20 mM Tris-HCl, pH 7.5, 300 mM NaCl, 2 mM DTT, 49 nM DNMT1 (amino acids 621–1616), 0.08 U/µl GlaI, 30% glycerol to columns 2–23 or a GlaI control solution of 20 mM Tris-HCl, pH 7.5, 300 mM NaCl, 2 mM DTT, 0.08 U/µl GlaI, 30% glycerol to columns 1 and 24) was added and the plate was again incubated at 37°C for 25 minutes. […] Each 384 well plate contained two columns of negative (n) and positive (p) controls for inhibitor activity. Columns 2 and 23 were the n controls with DMSO without test compound. Columns 1 and 24 were the p controls without DNMT1. Thus, 320 compounds were assayed per 384 well plate in columns 3–22.
Data across the screen were normalized to the p (0% DNMT1 activity) and n (100% DNMT1 activity) controls on each plate. […] Validation assays (81 µl total volume, identical buffer conditions to those used in the HTS screen) were performed in triplicate in 96 well plates with FAM fluorescence measured over the course of 1 hour. A control containing GlaI in the absence of DNMT1 was subtracted from each assay condition. Corrected assay traces were plotted and compared to DMSO-containing control traces in Prism (GraphPad Software, Inc).

The subject of a further assay is GlaI. The assay can be described thus: GlaI counterscreen. To be noted: 11 µM test compound; for Initial Velocity: 5 nM oligonucleotide 8007, 0.2 U GlaI; for Percent Activity: compared to DMSO. The class given is biochemical. As to the method: GlaI inhibitors were identified and excluded using a fluorescence-based assay. Duplicate assays (80 µl) were conducted in 96 well plates. Assays contained 10 mM Tris-HCl pH 7.5, 100 mM potassium glutamate, 1 mM MgCl2, 1 mM DTT, 0.1 mg/mL BSA, 5% glycerol, 5 nM oligonucleotide 8007 (5′-FAM-CCTATGmCGm[…]mCGmCATAGG-3′-Iowa Black, where mC denotes 5-methyldeoxycytidylate residues, Integrated DNA Technologies, Coralville, IA), 0.2 U GlaI, 11 µM test compound and 1.2% DMSO. Reactions were initiated by the addition of GlaI. Cleavage of the oligonucleotide releases the 5′ FAM fluorophore from the 3′ Iowa Black quencher and generates fluorescence. A control reaction in the absence of GlaI was subtracted from each assay condition to account for background fluorescence of the internally quenched substrate. Corrected time courses were fitted in Prism.
A general note: The purpose of a counterscreen is to sort out artefacts and off-target activity.

For assay [2], the target named is T2, RFTS-containing DNMT1 (amino acids 351–1616) (Homo sapiens, UniProt P26358).
T2 construct: RFTS-containing DNMT1, amino acids 351–1616; made in house
T2 sequence (P26358 351-1616): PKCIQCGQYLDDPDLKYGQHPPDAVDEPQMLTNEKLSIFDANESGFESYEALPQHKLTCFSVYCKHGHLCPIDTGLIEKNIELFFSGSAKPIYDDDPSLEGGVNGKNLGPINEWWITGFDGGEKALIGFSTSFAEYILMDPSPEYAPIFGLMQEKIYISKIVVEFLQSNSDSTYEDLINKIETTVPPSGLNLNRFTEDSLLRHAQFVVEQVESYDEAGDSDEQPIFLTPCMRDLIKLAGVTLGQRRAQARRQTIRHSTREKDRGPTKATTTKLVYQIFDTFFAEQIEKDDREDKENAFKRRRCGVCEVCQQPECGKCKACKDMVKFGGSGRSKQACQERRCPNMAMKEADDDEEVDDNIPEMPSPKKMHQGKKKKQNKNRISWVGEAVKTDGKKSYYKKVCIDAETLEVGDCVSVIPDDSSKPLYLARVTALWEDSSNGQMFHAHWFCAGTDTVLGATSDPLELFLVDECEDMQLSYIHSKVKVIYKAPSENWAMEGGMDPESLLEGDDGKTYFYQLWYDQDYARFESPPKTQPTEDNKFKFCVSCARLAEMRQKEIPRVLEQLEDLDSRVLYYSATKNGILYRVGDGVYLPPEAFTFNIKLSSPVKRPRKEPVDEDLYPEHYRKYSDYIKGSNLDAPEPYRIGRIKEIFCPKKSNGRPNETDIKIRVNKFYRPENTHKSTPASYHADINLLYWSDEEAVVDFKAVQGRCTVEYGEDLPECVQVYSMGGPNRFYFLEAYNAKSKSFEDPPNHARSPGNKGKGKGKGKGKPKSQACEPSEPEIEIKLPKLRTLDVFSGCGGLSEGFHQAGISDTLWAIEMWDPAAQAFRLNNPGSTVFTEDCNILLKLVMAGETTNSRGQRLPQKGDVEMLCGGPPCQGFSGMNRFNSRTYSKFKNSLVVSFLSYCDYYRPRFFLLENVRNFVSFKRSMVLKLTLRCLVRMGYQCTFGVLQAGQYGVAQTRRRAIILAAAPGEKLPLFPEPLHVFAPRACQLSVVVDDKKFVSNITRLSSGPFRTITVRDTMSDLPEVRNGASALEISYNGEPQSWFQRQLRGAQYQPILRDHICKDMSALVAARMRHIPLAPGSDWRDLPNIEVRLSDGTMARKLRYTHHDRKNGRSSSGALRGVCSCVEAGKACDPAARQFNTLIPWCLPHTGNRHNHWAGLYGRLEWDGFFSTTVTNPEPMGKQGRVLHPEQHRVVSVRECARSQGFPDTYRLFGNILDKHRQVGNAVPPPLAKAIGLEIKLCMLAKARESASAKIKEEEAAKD
Description: Compound selectivity, endonuclease-coupled DNA methylation assay. The assay is classed as biochemical. To be noted: 20 µM inhibitor, 20 nM methyltransferase, 0.25 mM SAM. The protocol: (§1) Triplicate assays (100 µl) containing 0.25 mM SAM, 0.2 µM oligonucleotide 8006, 0.8 U GlaI, 20 nM methyltransferase, 20 µM inhibitor and 1% DMSO were conducted in 96 well plates. Following enzyme addition, assay plates were incubated at 37°C for 75 min and fluorescence was measured in a BioTek Neo plate reader. A control containing only GlaI was subtracted from each assay. […] Percent activity was determined by comparing product formation to a DMSO containing control assay.

For another assay, the target named is T3, CD-DNMT3A/DNMT3L complex (Homo sapiens, UniProt Q9Y6K1).
T3 construct: CD-DNMT3A; amino acids 611–912; His tag (N); made in house; host or cells: Rosetta 2(DE3)pLysS (E. coli) for CD-DNMT3A
T3 sequence (Q9Y6K1 611-912): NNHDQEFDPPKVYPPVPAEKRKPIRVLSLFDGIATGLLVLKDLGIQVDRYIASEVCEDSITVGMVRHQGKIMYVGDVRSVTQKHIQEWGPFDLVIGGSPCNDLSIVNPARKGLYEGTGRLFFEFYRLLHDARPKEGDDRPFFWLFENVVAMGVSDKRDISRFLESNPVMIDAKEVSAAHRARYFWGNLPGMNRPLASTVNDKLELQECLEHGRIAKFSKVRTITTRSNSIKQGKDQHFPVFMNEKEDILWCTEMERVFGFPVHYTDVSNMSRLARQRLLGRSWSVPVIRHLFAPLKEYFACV
T3 sequence (Q9UJW3 whole entry partner, the tested form may be a part): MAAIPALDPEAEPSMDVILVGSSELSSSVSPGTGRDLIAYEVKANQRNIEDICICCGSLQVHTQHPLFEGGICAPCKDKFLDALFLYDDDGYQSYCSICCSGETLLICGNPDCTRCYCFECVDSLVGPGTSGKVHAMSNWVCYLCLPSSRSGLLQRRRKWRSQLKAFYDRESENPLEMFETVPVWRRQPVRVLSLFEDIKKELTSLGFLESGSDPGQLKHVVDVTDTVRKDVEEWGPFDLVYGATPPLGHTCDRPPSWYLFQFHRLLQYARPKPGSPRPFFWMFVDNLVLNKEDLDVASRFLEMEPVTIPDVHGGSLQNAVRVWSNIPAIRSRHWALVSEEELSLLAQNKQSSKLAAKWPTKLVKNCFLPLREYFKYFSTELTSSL
The description is as above. The assay is classed as biochemical. The note with it: 20 µM inhibitor; for Percent activity, DNMT3A/DNMT3L Complex: 20 nM methyltransferase, 0.25 mM SAM. As to the method: as §1

For a further assay, the target named is T4, M.SssI DNMT (Spiroplasma monobiae, UniProt P15840).
T4 construct: purchased New England Biolabs
T4 sequence (P15840 whole entry): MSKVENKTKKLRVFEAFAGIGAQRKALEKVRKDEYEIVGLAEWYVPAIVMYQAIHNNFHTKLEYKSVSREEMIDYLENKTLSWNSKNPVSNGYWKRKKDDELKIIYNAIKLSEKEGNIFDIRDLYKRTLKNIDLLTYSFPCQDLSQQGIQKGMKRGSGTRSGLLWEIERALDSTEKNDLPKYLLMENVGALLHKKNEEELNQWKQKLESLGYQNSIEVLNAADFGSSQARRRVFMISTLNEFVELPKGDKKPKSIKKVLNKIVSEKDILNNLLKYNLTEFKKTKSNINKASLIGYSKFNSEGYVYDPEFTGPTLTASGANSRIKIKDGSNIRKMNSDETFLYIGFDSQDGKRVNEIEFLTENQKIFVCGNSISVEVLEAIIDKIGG
The description is as above. The assay is classed as biochemical, bacterial. To be noted: 1.25 h; 20 µM inhibitor, 20 nM methyltransferase, 0.25 mM SAM; read-out: Percent activity, M.SssI DNMT. The protocol:
as §1, with “After identifying direct inhibitors of DNMT1 lacking the RFTS domain, inhibitor selectivity was assessed by examining inhibition of RFTS-containing DNMT1 (amino acids 351–1616), CD-DNMT3A/DNMT3L complex, and the bacterial cytosine methyltransferase from M. SssI (New England Biolabs) using the endonuclease-coupled DNA methylation assay. Triplicate” for “Triplicate”

T1 sequence (P26358 621-1616): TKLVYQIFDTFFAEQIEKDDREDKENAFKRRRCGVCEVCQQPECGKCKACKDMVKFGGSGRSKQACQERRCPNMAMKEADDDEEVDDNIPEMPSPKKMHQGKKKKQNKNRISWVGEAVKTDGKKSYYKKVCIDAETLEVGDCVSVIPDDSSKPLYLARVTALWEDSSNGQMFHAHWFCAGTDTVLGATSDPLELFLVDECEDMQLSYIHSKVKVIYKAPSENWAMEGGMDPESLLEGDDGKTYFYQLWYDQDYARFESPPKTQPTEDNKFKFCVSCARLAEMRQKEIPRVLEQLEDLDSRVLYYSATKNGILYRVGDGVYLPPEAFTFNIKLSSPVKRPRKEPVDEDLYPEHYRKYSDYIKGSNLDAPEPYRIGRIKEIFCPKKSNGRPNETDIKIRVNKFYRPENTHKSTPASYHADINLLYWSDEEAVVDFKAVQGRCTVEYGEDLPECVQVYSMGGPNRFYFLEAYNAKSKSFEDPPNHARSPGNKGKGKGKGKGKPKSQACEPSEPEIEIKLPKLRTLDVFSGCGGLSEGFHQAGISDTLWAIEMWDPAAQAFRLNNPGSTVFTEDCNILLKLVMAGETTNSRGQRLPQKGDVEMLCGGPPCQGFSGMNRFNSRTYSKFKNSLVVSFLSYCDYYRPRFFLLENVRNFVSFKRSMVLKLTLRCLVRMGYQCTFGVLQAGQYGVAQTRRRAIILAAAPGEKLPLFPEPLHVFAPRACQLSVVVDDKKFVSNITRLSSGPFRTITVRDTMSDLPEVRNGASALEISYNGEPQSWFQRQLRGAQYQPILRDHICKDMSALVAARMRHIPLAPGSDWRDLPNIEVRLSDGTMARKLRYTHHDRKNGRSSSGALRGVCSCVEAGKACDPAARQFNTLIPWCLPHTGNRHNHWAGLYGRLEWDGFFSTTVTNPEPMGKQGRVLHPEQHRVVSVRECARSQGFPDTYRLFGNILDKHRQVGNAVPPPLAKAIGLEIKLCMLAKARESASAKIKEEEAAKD

Take `Oc1cc(Cl)ccc1Oc1ccc(Cl)cc1Cl` [Cmpd 13, triclosan]: in assay [1], the “vo (initial velocity)” value was 15 ± 2 RFU/min, the “Percent Activity” value amounted to 27%, the “Normalized RFU” value was found to be 19 and the RFU was 779 ± 42 RFU. Further, the “Initial Velocity” value in the assay on GlaI was determined as 28 ± 2 RFU/min. Also, in assay [2], the “Percent activity, RFTS-containing Dnmt1” value was determined as 25±8%. Also, at CD-DNMT3A/DNMT3L complex, the “selectivity for DNMT1 versus DNMT3A/DNMT3L (in words)” value is listed as “nonselective” and the “Percent activity, DNMT3A/DNMT3L Complex” value worked out at 23±10%. The remaining activity at 20 µM on M.SssI DNMT was 25 ± 4%.

For `O=C(O)c1cc(O)c2c(c1)[C@@H]([C@H]1c3cc(C(=O)O)cc(O)c3C(=O)c3c(O[C@H]4O[C@H](CO)[C@@H](O)[C@H](O)[C@H]4O)cccc31)c1cccc(O[C@H]3O[C@H](CO)[C@@H](O)[C@H](O)[C@H]3O)c1C2=O` [Cmpd 22], in assay [1], the “Percent Activity” value is on record as 0%, the “Normalized RFU” value stood at 7 and the RFU was 621 ± 12 RFU. In the assay on GlaI, the “Initial Velocity” value was found to be 24 ± 1 RFU/min and the “Percent Activity” value was 86%. Further, the “Percent activity, RFTS-containing Dnmt1” value in assay [2] is 40±10%. Further, the “Percent activity, DNMT3A/DNMT3L Complex” value on CD-DNMT3A/DNMT3L complex worked out at 88±11%. Besides, the remaining activity at 20 µM at M.SssI DNMT was 20 ± 5%.

On to `CC1/C=C/C=C/C=C/C=C/C=C/C=C/C=C/C(O[C@@H]2O[C@H](C)[C@H](O)[C@@H](O)[C@@H]2N)CC(O)C(C(=O)O)C(O)CC(=O)CC(O)CC(O)CC(O)CC(=O)CCCC(=O)CC(=O)OC1C(C)CC(C)C(O)CC(=O)c1ccc(N)cc1` (some centres unmarked) [Cmpd 24], for which, in assay [1], the “vo (initial velocity)” value is recorded as 5 ± 1 RFU/min, the “Percent Activity” value was 9%, the “Normalized RFU” value stood at 11 and the RFU was determined as 677 ± 60 RFU. Moreover, the “Initial Velocity” value in the assay with GlaI stood at 27 ± 1 RFU/min. Moreover, the “Percent activity, DNMT3A/DNMT3L Complex” value at CD-DNMT3A/DNMT3L complex was determined as 49±16%. In addition, at M.SssI DNMT, the remaining activity at 20 µM came out at 49 ± 12%.

Regarding `O=C1c2ccccc2C(=O)c2c1ccc(O)c2O` [Cmpd 26, alizarin], in assay [1], the “vo (initial velocity)” value amounted to 27 ± 2 RFU/min, the “Percent Activity” value was 49%, the “Normalized RFU” value was 37 and the RFU came out at 1024 ± 110 RFU. In the assay with GlaI, the “Initial Velocity” value is reported as 22 ± 1 RFU/min and the “Percent Activity” value is given as 79%. The “Percent activity, RFTS-containing Dnmt1” value in assay [2] is reported as 51±10%. Also, at CD-DNMT3A/DNMT3L complex, the “selectivity for DNMT1 versus DNMT3A/DNMT3L (in words)” value is given as “nonselective” and the “Percent activity, DNMT3A/DNMT3L Complex” value was 49±12%. The remaining activity at 20 µM at M.SssI DNMT turned out to be 68 ± 11%.

In the case of `CSc1nc2cc(Cl)c(Oc3cccc(Cl)c3Cl)cc2[nH]1` [Cmpd 29, triclabendazole], in assay [1], the “vo (initial velocity)” value came to 20 ± 2 RFU/min, the “Percent Activity” value was 36%, the “Normalized RFU” value is given as 27 and the RFU is 889 ± 20 RFU. In addition, in the assay with GlaI, the “Initial Velocity” value worked out at 22 ± 2 RFU/min and the “Percent Activity” value worked out at 79%. Moreover, at CD-DNMT3A/DNMT3L complex, the “selectivity for DNMT1 versus DNMT3A/DNMT3L (in words)” value is on record as “exhibited selectivity” and the “Percent activity, DNMT3A/DNMT3L Complex” value is 110±5%. Further, the remaining activity at 20 µM on M.SssI DNMT turned out to be 19 ± 6%.

`O=c1c(O)c(-c2ccc(O)c(O)c2)oc2c(O)c(O)cc(O)c12` [Cmpd 33]: in assay [1], the “vo (initial velocity)” value was determined as 25 ± 3 RFU/min, the “Percent Activity” value is 45%, the “Normalized RFU” value is 46 and the RFU was found to be 1145 ± 147 RFU. Moreover, the “Initial Velocity” value in the assay with GlaI is on record as 27 ± 2 RFU/min. Further, the “Percent activity, RFTS-containing Dnmt1” value in assay [2] is reported as 38±13%. Further, the “Percent activity, DNMT3A/DNMT3L Complex” value on CD-DNMT3A/DNMT3L complex was 74±13%. Also, the remaining activity at 20 µM at M.SssI DNMT was 86 ± 9%.

Consider `O=C(O)c1cc(O)c2c(c1)[C@@H]([C@@H]1c3cc(C(=O)O)cc(O)c3C(=O)c3c(O[C@H]4O[C@H](CO)[C@@H](O)[C@H](O)[C@H]4O)cccc31)c1cccc(O[C@H]3O[C@H](CO)[C@@H](O)[C@H](O)[C@H]3O)c1C2=O` [Cmpd 36], for which, in assay [1], the “Percent Activity” value came out at 0%, the “Normalized RFU” value came to 5 and the RFU stood at 591 ± 41 RFU. In the assay on GlaI, the “Initial Velocity” value was found to be 28 ± 1 RFU/min. In addition, the “Percent activity, RFTS-containing Dnmt1” value in assay [2] is recorded as 30±12%. For the same compound, the “Percent activity, DNMT3A/DNMT3L Complex” value at CD-DNMT3A/DNMT3L complex was 83±15%. For the same compound, the remaining activity at 20 µM at M.SssI DNMT was 40 ± 7%.

For `CC(=O)NCCc1ccc(O)c(-c2c(O)c(O)c3c(c2O)C(=O)c2c(cc(O)c(C(=O)O)c2C(=O)O)C3=O)c1` [Cmpd 40, Laccaic acid A], in assay [1], the “vo (initial velocity)” value was 6 ± 1 RFU/min, the “Percent Activity” value worked out at 11%, the “Normalized RFU” value was 5 and the RFU is reported as 602 ± 4 RFU. Further, in the assay on GlaI, the “Initial Velocity” value is recorded as 22 ± 3 RFU/min and the “Percent Activity” value stood at 79%. The “Percent activity, RFTS-containing Dnmt1” value in assay [2] is listed as 21±9%. In addition, on CD-DNMT3A/DNMT3L complex, the “selectivity for DNMT1 over DNMT3A/DNMT3L” value was roughly 4 fold and the “Percent activity, DNMT3A/DNMT3L Complex” value was found to be 80±10%. In addition, at M.SssI DNMT, the remaining activity at 20 µM amounted to 82 ± 10%.

With `O=C(O)C(S)C(S)C(=O)O` (centres unmarked) [Cmpd 51], in assay [1], the “vo (initial velocity)” value is listed as 5 ± 1 RFU/min, the “Percent Activity” value came to 9%, the “Normalized RFU” value came to 6 and the RFU came to 612 ± 55 RFU. Besides, in the assay with GlaI, the “Initial Velocity” value came to 25 ± 1 RFU/min and the “Percent Activity” value was 89%. In addition, in assay [2], the “Percent activity, RFTS-containing Dnmt1” value is given as 24±11%. The “Percent activity, DNMT3A/DNMT3L Complex” value on CD-DNMT3A/DNMT3L complex stood at 61±12%. In addition, the remaining activity at 20 µM on M.SssI DNMT was found to be 36 ± 7%.
